pEC50: −log10 of the molar value. Where only a bound is given, the exact number is not on record here.

This assay relates to breast cancer cell line MX-1. Put plainly: MX-1 cell line proliferation assay (3-day, Cell Titer Glo). It counts as cell-based. The settings on record: Homo sapiens, MX1, MX-1 cells, 72 hours, read-out: Cellular proliferation: EC50. As to the method: The impact of compounds of the Examples on cancer cell proliferation was determined using the breast cancer cell line MX-1 (ATCC) in a 3-day proliferation assay. MX-1 cells were maintained in RPMI supplemented with 10% FBS at 37° C. and an atmosphere of 5% CO2. For compound testing, MX-1 cells were plated in 96-well black bottom plates at a density of 5000 cells/well in 90 μL of culture media and incubated at 37° overnight to allow cell adhesion and spreading. Compound dilution series were prepared in DMSO via a 3-fold serial dilution from 3 mM to […]. The DMSO dilution series were then diluted 1:100 in phosphate buffered saline, and 10 μL of the resulted solution were added to the appropriate wells of the MX-1 cell plate. The final compound concentrations in the wells were 3, 1, 0.3, 0.1, 0.03, 0.01, 0.003, 0.001, 0.0003, 0.0001, and 0.00003 μM.
Luminescence readings from the Cell Titer Glo assay were normalized to the DMSO treated cells and analyzed using the GraphPad Prism software with sigmoidal curve fitting to obtain EC50s. The minimum significant ratio (MSR) was determined to evaluate assay reproducibility (Eastwood et al., (2006) J Biomol Screen, 11: 253-261). The overall MSR was determined to be 2.1 and a moving MSR (last six run MSR overtime) has been <2. The EC50 values are reported in Table 1 for the indicated compounds.
For orientation: Cellular ATP, detected with luciferase, serves as a proxy for viable cell number.
Take `CCOc1cc(=O)n(C)cc1-c1cc(NC(=O)Cn2ccc(-c3ccccc3)n2)ccc1Oc1ccc(F)cc1F` [Example 81, N-[4-(2,4-difluorophenoxy)-3-(4-ethoxy-1-methyl-6-oxo-1,6-dihydropyridin-3-yl)phenyl]-2-(3-phenyl-1H-pyrazol-1-yl)acetamide]: the pEC50 is below 6.00. Then `CCOc1cc(=O)n(C)cc1-c1cc(N(CCc2ccccc2)S(=O)(=O)CC)ccc1Oc1ccc(F)cc1F` [Example 75, N-[4-(2,4-difluorophenoxy)-3-(4-ethoxy-1-methyl-6-oxo-1,6-dihydropyridin-3-yl)phenyl]-N-(2-phenylethyl)ethanesulfonamide], with 6.21.

Take `CCOc1cc(=O)n(C)cc1-c1cc(N(Cc2cccnc2)S(=O)(=O)CC)ccc1Oc1ccc(F)cc1F` [Example 91, N-[4-(2,4-difluorophenoxy)-3-(4-ethoxy-1-methyl-6-oxo-1,6-dihydropyridin-3-yl)phenyl]-N-(pyridin-3-ylmethyl)ethanesulfonamide]: the pEC50 was 6.30.

Turning to `CCOc1cc(=O)n(C)cc1-c1cc(NC(=O)Cc2ccc(Cl)cc2F)ccc1Oc1ccc(F)cc1F` [Example 3, 2-(4-chloro-2-fluorophenyl)-N-[4-(2,4-difluorophenoxy)-3-(4-ethoxy-1-methyl-6-oxo-1,6-dihydropyridin-3-yl)phenyl]acetamide], the pEC50 was 6.36. Then `CCOc1cc(=O)n(C)cc1-c1cc(N(Cc2nccs2)S(=O)(=O)Cc2ccccc2)ccc1Oc1ccc(F)cc1F` [Example 90, N-[4-(2,4-difluorophenoxy)-3-(4-ethoxy-1-methyl-6-oxo-1,6-dihydropyridin-3-yl)phenyl]-1-phenyl-N-(1,3-thiazol-2-ylmethyl)methanesulfonamide], with below 6.00; and `CCOc1cc(=O)n(C)cc1-c1cc(NC(=O)CCS(=O)(=O)c2ccccc2)ccc1Oc1ccc(F)cc1F` [Example 27, N-[4-(2,4-difluorophenoxy)-3-(4-ethoxy-1-methyl-6-oxo-1,6-dihydropyridin-3-yl)phenyl]-3-(phenylsulfonyl)propanamide], with 6.14; and `CCOc1cc(=O)n(C)cc1-c1cc(NC(=O)Cc2ccc(S(C)(=O)=O)cc2)ccc1Oc1ccc(F)cc1F` [Example 29, N-[4-(2,4-difluorophenoxy)-3-(4-ethoxy-1-methyl-6-oxo-1,6-dihydropyridin-3-yl)phenyl]-2-[4-(methylsulfonyl)phenyl]acetamide], with 6.36. With `CCOc1cc(=O)n(C)cc1-c1cc(N(Cc2ccccc2Cl)S(=O)(=O)Cc2ccccc2)ccc1Oc1ccc(F)cc1F` [Example 78, N-(2-chlorobenzyl)-N-[4-(2,4-difluorophenoxy)-3-(4-ethoxy-1-methyl-6-oxo-1,6-dihydropyridin-3-yl)phenyl]-1-phenylmethanesulfonamide] the figure was below 6.00. As to `CCOc1cc(=O)n(C)cc1-c1cc(NC(=O)CCCc2ccccc2)ccc1Oc1ccc(F)cc1F` [Example 38, N-[4-(2,4-difluorophenoxy)-3-(4-ethoxy-1-methyl-6-oxo-1,6-dihydropyridin-3-yl)phenyl]-4-phenylbutanamide], the pEC50 was 6.11. Then `CCOc1cc(=O)n(C)cc1-c1cc(NC(=O)Cc2ccc(Oc3ccccc3)cc2)ccc1Oc1ccc(F)cc1F` [Example 37, N-[4-(2,4-difluorophenoxy)-3-(4-ethoxy-1-methyl-6-oxo-1,6-dihydropyridin-3-yl)phenyl]-2-(4-phenoxyphenyl)acetamide], with 5.84. With `CCOc1cc(=O)n(C)cc1-c1cc(NC(=O)Cc2cc(Cl)ccc2F)ccc1Oc1ccc(F)cc1F` [Example 82, 2-(5-chloro-2-fluorophenyl)-N-[4-(2,4-difluorophenoxy)-3-(4-ethoxy-1-methyl-6-oxo-1,6-dihydropyridin-3-yl)phenyl]acetamide] the figure was below 6.00. With `CCOc1cc(=O)n(C)cc1-c1cc(NC(=O)Cc2noc3ccccc23)ccc1Oc1ccc(F)cc1F` [Example 36, 2-(1,2-benzoxazol-3-yl)-N-[4-(2,4-difluorophenoxy)-3-(4-ethoxy-1-methyl-6-oxo-1,6-dihydropyridin-3-yl)phenyl]acetamide] the figure was 6.32. On to `CCOc1cc(=O)n(C)cc1-c1cc(NC(=O)Cc2cc(C)n(C)n2)ccc1Oc1ccc(F)cc1F` [Example 6, N-[4-(2,4-difluorophenoxy)-3-(4-ethoxy-1-methyl-6-oxo-1,6-dihydropyridin-3-yl)phenyl]-2-(1,5-dimethyl-1H-pyrazol-3-yl)acetamide], for which the pEC50 is 6.45. Regarding `CCOc1cc(=O)n(C)cc1-c1cc(NCc2ccnn2C)ccc1Oc1ccc(F)cc1F` [Example 13, 5-[2-(2,4-difluorophenoxy)-5-{[(1-methyl-1H-pyrazol-5-yl)methyl]amino}phenyl]-4-ethoxy-1-methylpyridin-2(1H)-one], the pEC50 is 5.83.

`CCOc1cc(=O)n(C)cc1-c1cc(NC(=O)C(C)c2cc(F)ccc2Cl)ccc1Oc1ccc(F)cc1F` (stereo not drawn) [Example 70, 2-(2-chloro-5-fluorophenyl)-N-[4-(2,4-difluorophenoxy)-3-(4-ethoxy-1-methyl-6-oxo-1,6-dihydropyridin-3-yl)phenyl]propanamide]: the pEC50 is below 6.00.

In the case of `CCOc1cc(=O)n(C)cc1-c1cc(N(CCc2ccccc2Cl)S(=O)(=O)CC)ccc1Oc1ccc(F)cc1F` [Example 80, N-[2-(2-chlorophenyl)ethyl]-N-[4-(2,4-difluorophenoxy)-3-(4-ethoxy-1-methyl-6-oxo-1,6-dihydropyridin-3-yl)phenyl]ethanesulfonamide], the pEC50 was below 6.00.

As to `CCOc1cc(=O)n(C)cc1-c1cc(NCc2ccn(CC)n2)ccc1Oc1ccc(F)cc1F` [Example 25, 5-[2-(2,4-difluorophenoxy)-5-{[(1-ethyl-1H-pyrazol-3-yl)methyl]amino}phenyl]-4-ethoxy-1-methylpyridin-2(1H)-one], the pEC50 is 5.81. Then `CCOc1cc(=O)n(C)cc1-c1cc(NC(=O)CCc2ccccc2)ccc1Oc1ccc(F)cc1F` [Example 41, N-[4-(2,4-difluorophenoxy)-3-(4-ethoxy-1-methyl-6-oxo-1,6-dihydropyridin-3-yl)phenyl]-3-phenylpropanamide], with 6.40; and `CCOc1cc(=O)n(C)cc1-c1cc(NC(=O)Nc2ccc(C)cc2C)ccc1Oc1ccc(F)cc1F` [Example 16, 1-[4-(2,4-difluorophenoxy)-3-(4-ethoxy-1-methyl-6-oxo-1,6-dihydropyridin-3-yl)phenyl]-3-(2,4-dimethylphenyl)urea], with below 5.52; and `CCOc1cc(=O)n(C)cc1-c1cc(N(Cc2cnn(C)c2)S(=O)(=O)CC)ccc1Oc1ccc(F)cc1F` [Example 97, N-[4-(2,4-difluorophenoxy)-3-(4-ethoxy-1-methyl-6-oxo-1,6-dihydropyridin-3-yl)phenyl]-N-[(1-methyl-1H-pyrazol-4-yl)methyl]ethanesulfonamide], with 6.26.

On to `CCOc1cc(=O)n(C)cc1-c1cc(NC(=O)Cn2ccc(-c3ccccc3F)n2)ccc1Oc1ccc(F)cc1F` [Example 8, N-[4-(2,4-difluorophenoxy)-3-(4-ethoxy-1-methyl-6-oxo-1,6-dihydropyridin-3-yl)phenyl]-2-[3-(2-fluorophenyl)-1H-pyrazol-1-yl]acetamide], for which the pEC50 is below 5.52. `CCOc1cc(=O)n(C)cc1-c1cc(NCc2cn3c(n2)CCC3)ccc1Oc1ccc(F)cc1F` [Example 10, 5-{2-(2,4-difluorophenoxy)-5-[(6,7-dihydro-5H-pyrrolo[1,2-a]imidazol-2-ylmethyl)amino]phenyl}-4-ethoxy-1-methylpyridin-2(1H)-one]: the pEC50 was 5.72. With `CCOc1cc(=O)n(C)cc1-c1cc(N(Cc2nccs2)S(=O)(=O)CC)ccc1Oc1ccc(F)cc1F` [Example 99, N-[4-(2,4-difluorophenoxy)-3-(4-ethoxy-1-methyl-6-oxo-1,6-dihydropyridin-3-yl)phenyl]-N-(1,3-thiazol-2-ylmethyl)ethanesulfonamide] the figure was 6.26. `CCOc1cc(=O)n(C)cc1-c1cc(N(Cc2cncnc2)S(=O)(=O)CC)ccc1Oc1ccc(F)cc1F` [Example 93, N-[4-(2,4-difluorophenoxy)-3-(4-ethoxy-1-methyl-6-oxo-1,6-dihydropyridin-3-yl)phenyl]-N-(pyrimidin-5-ylmethyl)ethanesulfonamide]: the pEC50 is below 6.00. Then `CCOc1cc(=O)n(C)cc1-c1cc(N(CC2CCOCC2)S(=O)(=O)CC)ccc1Oc1ccc(F)cc1F` [Example 103, N-[4-(2,4-difluorophenoxy)-3-(4-ethoxy-1-methyl-6-oxo-1,6-dihydropyridin-3-yl)phenyl]-N-(tetrahydro-2H-pyran-4-ylmethyl)ethanesulfonamide], with 6.17; and `CCOc1cc(=O)n(C)cc1-c1cc(NCc2cncn2C)ccc1Oc1ccc(F)cc1F` [Example 24, 5-[2-(2,4-difluorophenoxy)-5-{[(1-methyl-1H-imidazol-5-yl)methyl]amino}phenyl]-4-ethoxy-1-methylpyridin-2(1H)-one], with 6.08; and `CCOc1cc(=O)n(C)cc1-c1cc(NCc2ccccc2C#N)ccc1Oc1ccc(F)cc1F` [Example 57, 2-({[4-(2,4-difluorophenoxy)-3-(4-ethoxy-1-methyl-6-oxo-1,6-dihydropyridin-3-yl)phenyl]amino}methyl)benzonitrile], with 6.15.

(Values after patent publication US9428514B2, “Bromodomain inhibitors” (AbbVie Inc., priority 2013, dated 2016).)
